“And” between values parts separate entries of the source, which are not always exact repeats. Identical values can stand only once. Like-named read-outs stand apart in the source and are kept apart here.
Columns and labels:
[1] = biological target: T1, CB1 human recombinant protein (Homo sapiens, UniProt P21554); assay type: binding; parameters: purchased Abnova
[2] = biological target: T2, human cannabinoid receptor 1 membrane preparation (Homo sapiens, UniProt P21554); assay type: binding
T2 construct: purchased EMD Millipore

[3] = biological target: T1, CB1 human recombinant protein; test: Heterogeneous competitive plate assay, Δ9-THC conjugate coated 96-well plate, anti-CB1 antibody/HRP detection (Example 3)
CB2 receptors = CB2 receptors (Homo sapiens, UniProt P34972); details: background statement; cited from earlier work
CB2 receptors, sequence (P34972 whole entry): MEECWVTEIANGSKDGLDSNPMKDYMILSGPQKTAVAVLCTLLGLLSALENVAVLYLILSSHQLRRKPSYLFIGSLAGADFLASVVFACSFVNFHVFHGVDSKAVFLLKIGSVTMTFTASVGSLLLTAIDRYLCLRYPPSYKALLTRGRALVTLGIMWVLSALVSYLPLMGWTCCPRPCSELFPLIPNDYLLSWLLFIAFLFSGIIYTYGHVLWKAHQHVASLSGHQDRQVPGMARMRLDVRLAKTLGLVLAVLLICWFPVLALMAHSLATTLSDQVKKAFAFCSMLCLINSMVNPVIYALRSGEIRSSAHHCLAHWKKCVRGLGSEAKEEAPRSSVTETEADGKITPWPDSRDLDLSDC

T1 sequence (P21554 whole entry): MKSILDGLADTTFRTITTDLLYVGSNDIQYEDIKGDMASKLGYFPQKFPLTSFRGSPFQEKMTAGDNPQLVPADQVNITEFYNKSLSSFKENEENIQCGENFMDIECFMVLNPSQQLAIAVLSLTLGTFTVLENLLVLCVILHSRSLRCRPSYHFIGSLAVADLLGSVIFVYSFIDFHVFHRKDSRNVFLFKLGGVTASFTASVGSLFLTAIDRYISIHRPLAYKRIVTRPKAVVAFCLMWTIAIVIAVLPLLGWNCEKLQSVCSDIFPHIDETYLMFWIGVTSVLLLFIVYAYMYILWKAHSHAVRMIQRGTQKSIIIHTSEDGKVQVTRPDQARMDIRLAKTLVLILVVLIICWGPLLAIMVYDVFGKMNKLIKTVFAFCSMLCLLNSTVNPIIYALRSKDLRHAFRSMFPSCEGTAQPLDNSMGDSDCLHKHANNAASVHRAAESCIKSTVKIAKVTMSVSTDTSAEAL
T2 sequence (P21554 whole entry): as above

## CCCCCn1cc(C(=O)c2cccc3ccccc23)c2cc(O)ccc21 [JWH-018 5-hydroxyindole metabolite]
[1]; 100 ng/mL test sample, FIG. 8
  Signal inhibition (relative absorbance at 450 nm): showed less signal inhibition

## CCCCCCC(C)(C)c1cc(O)c2c(c1)OC(C)(C)[C@@H]1CC=C(CO)C[C@@H]21 [HU-210]
[2]
  Detection by the assay (in words): comparable response
  Relative Fluorescent Units (RFU): 21,014 RFU
[3]; sample containing 100 ng/ml
  Inhibition of absorbance at 450 nm (in words): significant inhibition of absorbance
[3]; with 100 ng/mL HU-210, average of 6 replicates, no cannabinoid blank 2.279
  Average Absorbance @ 450 nm: 1.480
[3]; with 100 ng/mL HU-210, single replicates, no cannabinoid blank average 2.279
  Absorbance @ 450 nm: 1.435 and 1.480 and 1.416 and 1.602 and 1.379 and 1.569

## CCCCCn1cc(C(=O)c2cccc3ccccc23)c2ccccc21 [JWH-018]
[2]
  Detection by the assay (in words): comparable response
  Relative Fluorescent Units (RFU): 22,299 RFU
[1]
  Signal inhibition (relative absorbance at 450 nm): demonstrated signal inhibition

## C=C(C)[C@@H]1CCC(C)=C[C@H]1c1c(O)cc(CCCCC)cc1O [cannabidiol, Cannabidiol]
CB2 receptors
  Affinity for CB2 receptors: low affinity

## CCCCCCCC(C)(C)c1ccc([C@H]2CCC[C@@H](O)C2)c(O)c1 [Cannabicyclohexanol]
[2]; 1 μg/mL sample, excitation 535 nm, emission 610 nm, no cannabinoids 47,934
  Relative Fluorescent Units (RFU): 20,667 RFU
[2]; 1 μg/mL solution of each
  Detection by the assay (in words): comparable response

Source: US20160025753A1, “ASSAY FOR CANNABINOIDS AND METHODS OF USE THEREOF” (priority 2014, published 2016)
